Experiments:
[1] = molecular target: Epidermal growth factor receptor (Homo sapiens, UniProt P00533); experiment: Inhibition of human EGFR using MEK1 as substrate incubated for 40 mins by gamma33P-ATP based scintillation counter analysis
[2] = molecular target: Platelet-derived growth factor receptor beta (Homo sapiens, UniProt P09619); experiment: Inhibition of human PDGFRbeta using MEK1 as substrate incubated for 40 mins by gamma33P-ATP based scintillation counter analysis
[3] = molecular target: Vascular endothelial growth factor receptor 2 (Homo sapiens, UniProt P35968); experiment: Inhibition of human VEGFR2 using MEK1 as substrate incubated for 40 mins by gamma33P-ATP based scintillation counter analysis
[4] = molecular target: Macrophage colony-stimulating factor 1 receptor (Homo sapiens, UniProt P07333); experiment: Inhibition of human CSF1R using MEK1 as substrate incubated for 40 mins by gamma33P-ATP based scintillation counter analysis
PANC-1 = experiment: Antitumor activity against human PANC-1 cells xenografted in BALB/c nude mouse assessed as animal survival rate at 3 mg/kg, ip administered 6 times a week and measured for 100 days; format: functional; settings: PANC-1, 2400 h, time 100 day
[5] = molecular target: T1, Receptor-type tyrosine-protein kinase FLT3 (Homo sapiens, UniProt P36888); experiment: Inhibition of human FLT3 using MEK1 as substrate incubated for 40 mins by gamma33P-ATP based scintillation counter analysis
T1 sequence (P36888 whole entry): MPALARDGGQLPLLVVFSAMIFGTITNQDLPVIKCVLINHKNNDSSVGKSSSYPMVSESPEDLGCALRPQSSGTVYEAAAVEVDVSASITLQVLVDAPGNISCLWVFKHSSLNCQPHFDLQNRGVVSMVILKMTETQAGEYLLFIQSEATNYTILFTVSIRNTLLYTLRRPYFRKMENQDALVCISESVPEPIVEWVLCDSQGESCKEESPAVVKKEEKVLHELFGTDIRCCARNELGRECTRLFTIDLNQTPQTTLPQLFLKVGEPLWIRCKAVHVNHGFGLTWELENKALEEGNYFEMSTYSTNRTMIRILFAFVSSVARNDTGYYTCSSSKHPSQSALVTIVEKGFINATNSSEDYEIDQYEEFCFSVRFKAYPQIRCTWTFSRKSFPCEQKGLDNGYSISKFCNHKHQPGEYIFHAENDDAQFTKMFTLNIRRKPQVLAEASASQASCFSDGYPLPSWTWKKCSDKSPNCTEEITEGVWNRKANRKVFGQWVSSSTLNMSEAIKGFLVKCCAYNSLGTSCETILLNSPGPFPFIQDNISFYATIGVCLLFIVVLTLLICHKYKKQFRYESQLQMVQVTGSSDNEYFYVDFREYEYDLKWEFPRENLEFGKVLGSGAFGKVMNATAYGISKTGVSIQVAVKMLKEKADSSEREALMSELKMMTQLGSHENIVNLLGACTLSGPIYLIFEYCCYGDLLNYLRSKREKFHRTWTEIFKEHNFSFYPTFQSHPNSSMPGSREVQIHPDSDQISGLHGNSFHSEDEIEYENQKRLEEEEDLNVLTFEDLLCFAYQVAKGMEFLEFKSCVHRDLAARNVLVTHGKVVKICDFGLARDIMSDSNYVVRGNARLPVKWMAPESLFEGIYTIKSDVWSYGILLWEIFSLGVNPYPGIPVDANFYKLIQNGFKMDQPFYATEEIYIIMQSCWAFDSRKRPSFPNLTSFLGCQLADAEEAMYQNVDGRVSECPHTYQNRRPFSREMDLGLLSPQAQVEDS

[6] = molecular target: Mast/stem cell growth factor receptor Kit (Homo sapiens, UniProt P10721); experiment: Inhibition of human c-Kit using MEK1 as substrate incubated for 40 mins by gamma33P-ATP based scintillation counter analysis
Chain of Mast/stem cell growth factor receptor Kit (P10721 whole entry): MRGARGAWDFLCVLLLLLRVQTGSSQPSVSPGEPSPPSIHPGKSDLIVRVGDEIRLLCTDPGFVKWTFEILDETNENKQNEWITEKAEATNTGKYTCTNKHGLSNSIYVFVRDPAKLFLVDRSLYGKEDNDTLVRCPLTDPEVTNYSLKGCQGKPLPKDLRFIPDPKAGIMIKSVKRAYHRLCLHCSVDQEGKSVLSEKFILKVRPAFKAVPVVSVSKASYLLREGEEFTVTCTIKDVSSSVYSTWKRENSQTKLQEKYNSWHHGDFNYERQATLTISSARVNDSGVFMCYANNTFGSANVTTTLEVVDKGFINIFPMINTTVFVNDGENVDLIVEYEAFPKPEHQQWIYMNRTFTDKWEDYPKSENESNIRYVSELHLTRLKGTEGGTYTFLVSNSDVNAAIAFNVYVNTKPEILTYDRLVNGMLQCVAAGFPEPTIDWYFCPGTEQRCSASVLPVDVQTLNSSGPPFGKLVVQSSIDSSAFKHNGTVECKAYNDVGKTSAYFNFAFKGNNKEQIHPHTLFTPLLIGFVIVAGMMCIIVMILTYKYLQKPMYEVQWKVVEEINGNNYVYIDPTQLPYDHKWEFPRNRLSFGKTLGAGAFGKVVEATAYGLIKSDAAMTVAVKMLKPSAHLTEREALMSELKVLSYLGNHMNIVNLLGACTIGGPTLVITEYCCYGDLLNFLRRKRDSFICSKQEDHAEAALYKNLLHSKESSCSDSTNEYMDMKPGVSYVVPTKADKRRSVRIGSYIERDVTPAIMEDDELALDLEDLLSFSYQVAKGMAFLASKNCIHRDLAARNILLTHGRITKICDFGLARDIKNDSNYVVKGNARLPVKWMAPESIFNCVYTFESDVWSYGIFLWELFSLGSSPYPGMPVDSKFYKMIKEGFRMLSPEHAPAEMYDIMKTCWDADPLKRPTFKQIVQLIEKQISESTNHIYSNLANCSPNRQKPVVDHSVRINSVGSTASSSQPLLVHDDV

Chain of Macrophage colony-stimulating factor 1 receptor (P07333 whole entry): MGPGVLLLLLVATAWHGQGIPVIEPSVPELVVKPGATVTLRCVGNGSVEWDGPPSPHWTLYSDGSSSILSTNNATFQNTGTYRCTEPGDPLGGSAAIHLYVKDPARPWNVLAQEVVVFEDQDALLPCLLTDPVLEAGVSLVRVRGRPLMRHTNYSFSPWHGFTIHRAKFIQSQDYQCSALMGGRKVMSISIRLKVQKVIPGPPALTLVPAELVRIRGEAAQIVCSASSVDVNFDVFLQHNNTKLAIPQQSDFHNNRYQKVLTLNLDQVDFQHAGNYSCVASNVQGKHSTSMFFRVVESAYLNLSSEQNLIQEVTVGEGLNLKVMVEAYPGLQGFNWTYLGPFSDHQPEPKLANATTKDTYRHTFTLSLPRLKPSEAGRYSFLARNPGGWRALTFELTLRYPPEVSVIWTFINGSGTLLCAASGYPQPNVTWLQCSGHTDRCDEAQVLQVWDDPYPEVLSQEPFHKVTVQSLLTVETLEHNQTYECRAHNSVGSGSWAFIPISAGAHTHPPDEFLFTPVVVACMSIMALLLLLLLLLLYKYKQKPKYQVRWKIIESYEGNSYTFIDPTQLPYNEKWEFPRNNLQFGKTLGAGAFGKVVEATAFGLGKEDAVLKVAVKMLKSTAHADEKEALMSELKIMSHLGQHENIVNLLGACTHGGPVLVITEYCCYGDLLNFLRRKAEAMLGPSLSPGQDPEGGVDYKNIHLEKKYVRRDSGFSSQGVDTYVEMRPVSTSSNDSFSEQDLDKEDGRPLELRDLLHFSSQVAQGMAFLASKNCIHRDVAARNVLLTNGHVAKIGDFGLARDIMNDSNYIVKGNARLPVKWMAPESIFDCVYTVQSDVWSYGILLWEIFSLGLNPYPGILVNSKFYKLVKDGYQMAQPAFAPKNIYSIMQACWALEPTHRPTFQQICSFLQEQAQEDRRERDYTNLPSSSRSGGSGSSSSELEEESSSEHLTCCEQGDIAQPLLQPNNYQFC
Chain of Vascular endothelial growth factor receptor 2 (P35968 whole entry): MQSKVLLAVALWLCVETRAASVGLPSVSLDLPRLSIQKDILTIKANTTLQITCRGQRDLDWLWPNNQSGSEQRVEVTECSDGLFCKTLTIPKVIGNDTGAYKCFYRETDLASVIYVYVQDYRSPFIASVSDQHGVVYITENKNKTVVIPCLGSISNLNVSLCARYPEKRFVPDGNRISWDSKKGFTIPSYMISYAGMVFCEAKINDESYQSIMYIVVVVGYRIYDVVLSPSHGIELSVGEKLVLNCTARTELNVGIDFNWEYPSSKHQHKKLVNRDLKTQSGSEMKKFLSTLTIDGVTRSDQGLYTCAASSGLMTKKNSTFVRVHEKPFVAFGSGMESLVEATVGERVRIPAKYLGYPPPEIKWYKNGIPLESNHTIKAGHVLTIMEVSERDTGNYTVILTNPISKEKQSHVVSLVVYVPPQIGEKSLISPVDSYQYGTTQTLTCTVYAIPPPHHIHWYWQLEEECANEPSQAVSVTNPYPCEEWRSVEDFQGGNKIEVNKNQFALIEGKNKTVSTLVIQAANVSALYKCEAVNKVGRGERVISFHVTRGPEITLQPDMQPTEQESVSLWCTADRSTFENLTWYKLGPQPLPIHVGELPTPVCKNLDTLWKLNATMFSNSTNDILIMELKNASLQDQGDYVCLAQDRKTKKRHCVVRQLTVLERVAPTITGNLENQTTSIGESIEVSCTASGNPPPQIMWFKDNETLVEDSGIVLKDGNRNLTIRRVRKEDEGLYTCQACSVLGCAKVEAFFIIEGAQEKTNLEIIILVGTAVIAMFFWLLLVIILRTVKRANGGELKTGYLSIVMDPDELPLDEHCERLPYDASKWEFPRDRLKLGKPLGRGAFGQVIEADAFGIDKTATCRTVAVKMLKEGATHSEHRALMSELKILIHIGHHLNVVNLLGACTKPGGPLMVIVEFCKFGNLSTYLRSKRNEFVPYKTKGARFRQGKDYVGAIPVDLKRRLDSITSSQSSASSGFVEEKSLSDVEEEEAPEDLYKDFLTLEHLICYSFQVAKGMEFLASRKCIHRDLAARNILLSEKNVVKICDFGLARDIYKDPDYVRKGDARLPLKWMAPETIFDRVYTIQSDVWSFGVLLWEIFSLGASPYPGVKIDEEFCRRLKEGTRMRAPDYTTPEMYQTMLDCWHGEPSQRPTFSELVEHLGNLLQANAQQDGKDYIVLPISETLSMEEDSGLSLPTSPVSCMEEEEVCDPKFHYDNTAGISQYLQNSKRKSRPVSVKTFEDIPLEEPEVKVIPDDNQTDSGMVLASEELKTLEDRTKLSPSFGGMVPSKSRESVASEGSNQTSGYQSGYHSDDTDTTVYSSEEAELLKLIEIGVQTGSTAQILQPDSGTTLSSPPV
Chain of Platelet-derived growth factor receptor beta (P09619 whole entry): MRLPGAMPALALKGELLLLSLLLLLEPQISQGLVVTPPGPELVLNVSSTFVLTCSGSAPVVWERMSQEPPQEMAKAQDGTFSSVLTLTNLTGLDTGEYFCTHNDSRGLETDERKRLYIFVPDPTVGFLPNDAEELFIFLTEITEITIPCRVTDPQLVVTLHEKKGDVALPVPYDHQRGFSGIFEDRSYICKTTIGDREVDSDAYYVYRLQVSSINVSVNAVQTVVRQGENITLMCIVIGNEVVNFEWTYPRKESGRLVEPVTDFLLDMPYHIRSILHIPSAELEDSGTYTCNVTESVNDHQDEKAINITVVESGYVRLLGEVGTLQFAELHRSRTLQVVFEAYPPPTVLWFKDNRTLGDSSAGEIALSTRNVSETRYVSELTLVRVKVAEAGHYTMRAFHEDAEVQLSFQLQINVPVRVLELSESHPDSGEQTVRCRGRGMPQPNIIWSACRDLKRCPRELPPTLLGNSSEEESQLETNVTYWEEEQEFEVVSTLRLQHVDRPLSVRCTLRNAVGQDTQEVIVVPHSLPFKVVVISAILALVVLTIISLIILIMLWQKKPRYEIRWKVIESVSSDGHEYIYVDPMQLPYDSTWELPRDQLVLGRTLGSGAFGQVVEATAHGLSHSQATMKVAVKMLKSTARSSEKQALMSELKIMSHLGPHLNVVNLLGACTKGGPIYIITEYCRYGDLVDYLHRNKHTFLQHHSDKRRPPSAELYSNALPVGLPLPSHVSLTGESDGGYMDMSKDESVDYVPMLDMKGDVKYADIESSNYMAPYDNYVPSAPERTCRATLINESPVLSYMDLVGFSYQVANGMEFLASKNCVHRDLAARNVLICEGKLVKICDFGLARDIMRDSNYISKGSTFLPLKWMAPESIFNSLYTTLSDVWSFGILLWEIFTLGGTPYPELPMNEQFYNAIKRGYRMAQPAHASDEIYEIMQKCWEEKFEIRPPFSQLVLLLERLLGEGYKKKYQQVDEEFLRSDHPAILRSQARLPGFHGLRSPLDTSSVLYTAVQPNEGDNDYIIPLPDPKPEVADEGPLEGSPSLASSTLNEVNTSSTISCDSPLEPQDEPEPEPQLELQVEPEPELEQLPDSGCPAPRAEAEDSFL

Cc1nc2c(c(C)c1O)/C(=C/c1ccc3ccccc3n1)C(=O)N2
IC50 [1]: 18.8 µM
IC50 [2]: 1 µM
IC50 [3]: > 10 µM
IC50 [4]: 12.9 µM
survival at 3 mg/kg (PANC-1): 100%
IC50 [5]: > 10 µM
IC50 [6]: 5.7 µM

From ChEMBL document CHEMBL5360540, “Antitumor effect of 3-(quinolin-2-ylmethylene)-4,6-dimethyl-5-hydroxy-7-azaoxindole down-regulating the Gas6-Axl axis” (Eur J Med Chem, 2023)
